The values below come from ChEMBL document CHEMBL1138341, “(S)-N-{3-[1-cyclopropyl-1-(2,4-difluoro-phenyl)-ethyl]-1H-indol-7-yl}-methanesulfonamide: a potent, nonsteroidal, functional antagonist of the mineralocorticoid receptor” (J Med Chem, 2007).

The target in test [1] is T1, Mineralocorticoid receptor (Homo sapiens, UniProt P08235).
T1 sequence (P08235 whole entry): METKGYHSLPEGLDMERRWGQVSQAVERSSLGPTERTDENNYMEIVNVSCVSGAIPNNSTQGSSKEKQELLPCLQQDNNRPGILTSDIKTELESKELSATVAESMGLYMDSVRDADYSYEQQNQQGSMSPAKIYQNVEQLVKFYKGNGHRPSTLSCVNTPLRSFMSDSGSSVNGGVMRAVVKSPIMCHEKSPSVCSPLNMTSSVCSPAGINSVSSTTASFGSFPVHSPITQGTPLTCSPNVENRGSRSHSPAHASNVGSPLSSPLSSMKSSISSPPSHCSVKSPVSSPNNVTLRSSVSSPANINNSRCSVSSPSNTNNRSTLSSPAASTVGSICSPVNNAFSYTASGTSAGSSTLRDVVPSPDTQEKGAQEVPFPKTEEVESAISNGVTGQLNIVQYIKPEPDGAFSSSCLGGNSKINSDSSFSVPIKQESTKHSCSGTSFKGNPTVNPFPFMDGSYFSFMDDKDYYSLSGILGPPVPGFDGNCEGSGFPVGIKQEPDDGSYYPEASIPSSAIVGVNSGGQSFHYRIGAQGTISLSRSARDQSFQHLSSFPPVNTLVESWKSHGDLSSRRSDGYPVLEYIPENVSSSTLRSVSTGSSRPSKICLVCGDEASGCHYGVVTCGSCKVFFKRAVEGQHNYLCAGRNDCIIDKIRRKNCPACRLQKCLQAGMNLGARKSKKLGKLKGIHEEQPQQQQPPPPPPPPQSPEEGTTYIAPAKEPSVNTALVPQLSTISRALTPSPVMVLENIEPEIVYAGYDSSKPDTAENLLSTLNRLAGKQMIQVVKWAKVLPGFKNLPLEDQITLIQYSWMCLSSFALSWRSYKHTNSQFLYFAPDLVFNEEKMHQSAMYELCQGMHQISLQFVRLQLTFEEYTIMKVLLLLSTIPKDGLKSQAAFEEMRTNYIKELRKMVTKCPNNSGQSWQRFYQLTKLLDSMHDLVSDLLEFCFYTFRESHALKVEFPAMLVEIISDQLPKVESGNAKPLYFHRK
Put plainly: Binding affinity to human mineralocorticoid receptor.

The target of the next test is T2, Glucocorticoid receptor (Homo sapiens, UniProt P04150).
T2 sequence (P04150 whole entry): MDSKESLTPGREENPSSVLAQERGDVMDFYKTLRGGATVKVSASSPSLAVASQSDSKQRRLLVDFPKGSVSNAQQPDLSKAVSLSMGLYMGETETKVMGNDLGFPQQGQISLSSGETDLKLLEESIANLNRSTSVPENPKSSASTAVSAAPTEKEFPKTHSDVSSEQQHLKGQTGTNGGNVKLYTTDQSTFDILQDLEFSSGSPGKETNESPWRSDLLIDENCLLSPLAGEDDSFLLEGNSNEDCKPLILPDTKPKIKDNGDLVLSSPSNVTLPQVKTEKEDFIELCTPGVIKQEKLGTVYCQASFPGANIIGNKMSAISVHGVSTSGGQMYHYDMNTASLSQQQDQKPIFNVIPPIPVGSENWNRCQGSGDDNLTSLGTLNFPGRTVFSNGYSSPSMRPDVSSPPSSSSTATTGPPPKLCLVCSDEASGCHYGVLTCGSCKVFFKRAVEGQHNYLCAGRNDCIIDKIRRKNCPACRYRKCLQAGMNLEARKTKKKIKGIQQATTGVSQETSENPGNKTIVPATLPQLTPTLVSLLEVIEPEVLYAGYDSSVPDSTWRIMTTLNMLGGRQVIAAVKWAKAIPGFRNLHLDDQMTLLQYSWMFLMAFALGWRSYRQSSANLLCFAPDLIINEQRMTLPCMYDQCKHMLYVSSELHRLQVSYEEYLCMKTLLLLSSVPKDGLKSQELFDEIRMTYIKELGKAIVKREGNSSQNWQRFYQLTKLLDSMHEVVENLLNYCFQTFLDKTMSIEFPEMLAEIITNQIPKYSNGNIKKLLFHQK
Put plainly: Binding affinity to human glucocorticoid receptor.

In the next test the target is T3, Estrogen receptor (Homo sapiens, UniProt P03372).
T3 sequence (P03372 whole entry): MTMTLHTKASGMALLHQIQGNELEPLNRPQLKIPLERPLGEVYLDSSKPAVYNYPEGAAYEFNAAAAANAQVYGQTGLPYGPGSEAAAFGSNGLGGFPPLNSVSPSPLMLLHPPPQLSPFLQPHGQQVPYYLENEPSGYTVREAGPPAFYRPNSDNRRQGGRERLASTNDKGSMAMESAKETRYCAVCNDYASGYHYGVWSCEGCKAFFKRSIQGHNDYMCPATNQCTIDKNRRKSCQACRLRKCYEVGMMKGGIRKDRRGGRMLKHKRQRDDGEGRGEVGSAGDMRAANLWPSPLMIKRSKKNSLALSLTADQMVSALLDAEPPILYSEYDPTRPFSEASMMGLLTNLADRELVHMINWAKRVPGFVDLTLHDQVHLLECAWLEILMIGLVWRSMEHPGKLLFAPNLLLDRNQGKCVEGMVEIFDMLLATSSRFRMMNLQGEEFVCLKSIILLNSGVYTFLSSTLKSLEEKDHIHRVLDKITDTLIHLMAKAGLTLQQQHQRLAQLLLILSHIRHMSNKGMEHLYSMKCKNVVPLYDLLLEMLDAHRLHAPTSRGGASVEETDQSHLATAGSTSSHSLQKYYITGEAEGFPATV
Put plainly: Binding affinity to human estrogen receptor.

For test [2], the system named is Rattus norvegicus. Put plainly: Reduction in aldosterone-induced hypertension in salt-loaded uni-nephrectomized Sprague-Dawley rat at 30 mg/kg, po qd after 14 days. It is filed as functional, organism-based. More on the design: dose 30 mg/kg.
The target in the next test is T4, Androgen receptor (Homo sapiens, UniProt P10275).
T4 sequence (P10275 whole entry): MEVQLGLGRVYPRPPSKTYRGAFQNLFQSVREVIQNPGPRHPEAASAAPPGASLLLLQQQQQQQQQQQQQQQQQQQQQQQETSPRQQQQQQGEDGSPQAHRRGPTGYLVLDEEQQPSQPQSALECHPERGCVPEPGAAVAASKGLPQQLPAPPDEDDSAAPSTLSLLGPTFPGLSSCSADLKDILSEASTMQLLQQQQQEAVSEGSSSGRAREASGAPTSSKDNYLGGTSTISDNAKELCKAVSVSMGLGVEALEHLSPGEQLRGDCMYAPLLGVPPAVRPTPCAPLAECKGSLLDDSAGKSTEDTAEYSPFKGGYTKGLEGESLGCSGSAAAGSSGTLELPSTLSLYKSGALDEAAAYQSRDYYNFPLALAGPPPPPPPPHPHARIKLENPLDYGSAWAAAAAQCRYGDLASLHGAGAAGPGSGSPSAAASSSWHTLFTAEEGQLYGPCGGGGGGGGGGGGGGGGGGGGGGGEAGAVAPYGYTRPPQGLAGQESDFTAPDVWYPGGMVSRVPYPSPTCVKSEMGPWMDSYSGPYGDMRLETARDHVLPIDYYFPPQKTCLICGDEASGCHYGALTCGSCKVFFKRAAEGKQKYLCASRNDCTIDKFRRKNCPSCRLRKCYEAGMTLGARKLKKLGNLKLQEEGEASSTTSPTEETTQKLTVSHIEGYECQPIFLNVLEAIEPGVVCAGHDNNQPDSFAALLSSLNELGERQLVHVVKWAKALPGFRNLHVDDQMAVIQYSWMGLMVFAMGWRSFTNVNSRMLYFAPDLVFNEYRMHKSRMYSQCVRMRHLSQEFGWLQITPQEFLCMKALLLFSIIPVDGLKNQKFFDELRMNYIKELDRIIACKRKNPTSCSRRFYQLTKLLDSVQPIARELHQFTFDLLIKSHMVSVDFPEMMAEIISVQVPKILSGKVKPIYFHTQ
Put plainly: Binding affinity to human androgen receptor.

Test [3] has as its target T5, Mineralocorticoid receptor (Homo sapiens) (UniProt P08235).
T5 sequence (whole entry): T1 sequence (P08235 whole entry)
The test is described as follows: Antagonist activity at human mineralocorticoid receptor expressed in COS7 cells after 24 hrs by luciferase reporter gene assay. It is filed as functional, cell-based. Particulars: COS-7.

The next test deals with T6, Progesterone receptor (Homo sapiens, UniProt P06401).
T6 sequence (P06401 whole entry): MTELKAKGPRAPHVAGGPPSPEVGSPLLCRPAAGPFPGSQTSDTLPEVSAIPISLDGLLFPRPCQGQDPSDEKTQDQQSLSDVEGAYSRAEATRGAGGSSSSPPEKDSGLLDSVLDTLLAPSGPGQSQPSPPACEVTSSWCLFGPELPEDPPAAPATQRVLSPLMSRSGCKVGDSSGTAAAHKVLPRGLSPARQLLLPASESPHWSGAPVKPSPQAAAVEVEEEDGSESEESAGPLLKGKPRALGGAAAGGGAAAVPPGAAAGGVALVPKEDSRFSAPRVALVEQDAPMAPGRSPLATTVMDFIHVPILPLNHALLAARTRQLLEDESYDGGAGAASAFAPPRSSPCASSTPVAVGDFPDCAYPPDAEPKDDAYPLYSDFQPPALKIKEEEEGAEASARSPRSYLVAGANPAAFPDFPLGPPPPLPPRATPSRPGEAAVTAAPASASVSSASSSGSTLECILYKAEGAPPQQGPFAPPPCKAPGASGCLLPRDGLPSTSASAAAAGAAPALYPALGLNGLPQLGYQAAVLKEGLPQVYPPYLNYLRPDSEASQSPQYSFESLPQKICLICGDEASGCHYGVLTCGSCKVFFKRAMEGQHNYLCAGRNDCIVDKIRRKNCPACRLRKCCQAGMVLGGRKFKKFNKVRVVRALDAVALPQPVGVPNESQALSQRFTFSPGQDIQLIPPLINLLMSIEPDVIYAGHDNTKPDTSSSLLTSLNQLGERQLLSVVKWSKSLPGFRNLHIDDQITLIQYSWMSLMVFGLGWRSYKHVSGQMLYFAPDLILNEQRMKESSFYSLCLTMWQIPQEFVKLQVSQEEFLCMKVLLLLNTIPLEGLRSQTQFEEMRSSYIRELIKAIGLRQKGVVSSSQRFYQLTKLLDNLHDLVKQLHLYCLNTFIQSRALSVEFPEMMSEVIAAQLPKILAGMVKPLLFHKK
The test is described as follows: Binding affinity to human progesterone receptor.

Test [4] concerns Rattus norvegicus. The test is described as follows: Reduction in aldosterone-induced hypertension in salt-loaded uni-nephrectomized Sprague-Dawley rat at 3 mg/kg, po qd after 14 days. Format: functional, organism-based. More on the design: dose 3 mg/kg.

Activity calls are given as the source filed them. The calls are words filed in the database; no cut-off is given here.

As for `COC(=O)[C@@H]1CC2=CC(=O)CC[C@]2(C)C2C1C1CC[C@@]3(CCC(=O)O3)[C@@]1(C)[C@H]1O[C@@H]21` (stereo partly specified) [EPIERENONE], the Ki was 124 nM in test [1]; 1760 nM on Glucocorticoid receptor; over 1100 nM at Estrogen receptor; 8890 nM at Androgen receptor; 29400 nM on Progesterone receptor. The outcome with Rattus norvegicus [2] was Active. Also, in test [3], the Kb is 189 nM.
Consider `C[C@@](c1ccc(F)cc1F)(c1c[nH]c2c(NS(C)(=O)=O)cccc12)C1CC1`, for which the outcome in the test with Rattus norvegicus [4] was Active. Also, the results for the Ki at Estrogen receptor, at Androgen receptor and on Progesterone receptor were over 1100 nM, 700 nM and 163 nM, respectively.
For the compound `C[C@](c1ccc(F)cc1)(c1c[nH]c2c(NS(C)(=O)=O)cccc12)C1CC1`, the Ki in test [1] was 7.5 nM; at Glucocorticoid receptor, 387 nM; on Estrogen receptor, over 1100 nM; at Androgen receptor, 590 nM; on Progesterone receptor, 313 nM. The same compound yielded a Kb in test [3] of 115 nM.
In the case of `CC(=O)S[C@@H]1CC2=CC(=O)CC[C@]2(C)[C@H]2CC[C@@]3(C)[C@@H](CC[C@@]34CCC(=O)O4)[C@H]12` [SPIRONOLACTONE], the values for the Ki at Glucocorticoid receptor and on Estrogen receptor were 32.6 nM and over 1100 nM, respectively.
As to `C[C@@](c1ccc(F)cc1)(c1c[nH]c2c(NS(C)(=O)=O)cccc12)C1CC1`, the Ki in test [1] was 1.56 nM; at Glucocorticoid receptor, 167 nM; on Estrogen receptor it was over 1100 nM; at Androgen receptor, 849 nM; at Progesterone receptor, 137 nM. Moreover, the result in the test on Rattus norvegicus [4] was inactive. Moreover, the Kb in test [3] came out at 38.2 nM.
